Paper PMC10461232, “Structure-Based Design of Transport-Specific Multitargeted One-Carbon Metabolism Inhibitors in Cytosol and Mitochondria” (Journal of Medicinal Chemistry, 2023)

Assays:
KB tumor cells = experiment: Metabolite rescue of growth inhibition in KB tumor cells; type: cell-based, human; details: serine- and glycine-free medium, adenosine 60 μM
From the text: To confirm the targeted pathways for the pyrrolo[3,2-d]pyrimidine antifolates in tumor cells, we treated KB human tumor cells cultured in serine- and glycine-free media with the pyrrolo[3,2-d]pyrimidine compounds (4–9, 11–16) to test for the rescue by added nucleosides and glycine. Results were compared to those for AGF94, a pyrrolo[2,3-d]pyrimidine antifolate that inhibits GARFTase without effects on SHMT2,[69] and to compounds 1, 2, and 3, documented inhibitors of mitochondrial C1 metabolism and de novo purine biosynthesis in human tumor cells.[36] The results are shown in Figures 15 and S11 (Supplemental Information). […]
For some experiments with KB tumor cells, cells were cultured in serine-, glycine-, and folate-free RPMI 1640 (Fisher Scientific), supplemented with 10% dialyzed fetal bovine serum, antibiotics, 25 nM leucovorin, and 2 mM L-glutamine. In vitro growth inhibition was measured (above), without additions, or in the presence of folic acid (200 nM), or thymidine (10 μM), adenosine (60 μM), 5-aminoimidazole-4-carboxamide (AICA) (320 μM), and/or glycine (130 μM) to establish the inhibitory effects of the antifolate drugs on de novo thymidylate synthase versus de novo purine nucleotide biosynthesis (GARFTase and AICARFTase) or mitochondrial C1 metabolism at SHMT2.[36],[63],[64],[68],[69] […]

SHMT2 = target: T1, SHMT2 (Homo sapiens, UniProt P34897); experiment: SHMT2 inhibition assay coupled with MTHFD2, Ki; type: biochemical; details: purified His-SHMT2, 50 μM THF, 25 °C; mean (SD), at least 3 replicates
T1 construct: made in house; host or cells: E. coli Rosetta (DE3)pLysS
T1 sequence (P34897 30-504): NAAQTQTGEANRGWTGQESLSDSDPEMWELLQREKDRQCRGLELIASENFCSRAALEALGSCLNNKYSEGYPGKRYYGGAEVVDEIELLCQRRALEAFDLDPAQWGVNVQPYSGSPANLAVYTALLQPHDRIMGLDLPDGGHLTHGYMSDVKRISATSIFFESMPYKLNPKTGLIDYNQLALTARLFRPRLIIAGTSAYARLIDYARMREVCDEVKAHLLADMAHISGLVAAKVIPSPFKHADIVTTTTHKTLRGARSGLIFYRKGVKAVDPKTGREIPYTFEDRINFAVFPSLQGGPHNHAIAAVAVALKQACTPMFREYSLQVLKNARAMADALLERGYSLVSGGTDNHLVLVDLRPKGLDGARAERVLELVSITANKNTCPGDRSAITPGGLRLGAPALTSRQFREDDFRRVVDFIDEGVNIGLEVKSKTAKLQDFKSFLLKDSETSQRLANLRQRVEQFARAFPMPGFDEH
Description: (§1) MTHFD2 activities were assayed by a reaction with methylene THF and NAD^+. NADH production was measured by fluorescence (excitation 340 nm, emission 480 nm). Reaction conditions included 100 nM MTHFD2, 5 μM methylene THF, and concentrations of small-molecule inhibitor ranging from 0.02 nM to 2000 nM; NAD^+ (2.5 mM) was added to initiate the reaction. The reaction buffer consisted of 50 mM Tris-HCl, pH 7.5, 250 mM NaCl, 5 mM magnesium chloride, 5% glycerol, and 0.5 mM TCEP. […] To assay SHMT1 or SHMT2 (SHMT1/2) enzymes, a coupled reaction with His-MTHFD2 in 200-fold molar excess was used where the production of NADH was monitored by fluorescence with excitation at 360 nm and emission at 470 nm at 25 °C. The reactions contained 5 nM His-SHMT1/2, 50 μM THF, 20 mM serine, 10 μM His-MTHFD2, 2.5 mM NAD^+, and a range of inhibitor concentrations (final concentrations). The reactions were performed in buffer containing 20 mM sodium phosphate, pH 7.5, 100 mM KCl, 0.2 mM EDTA, and 5 mM β-Me. […] To calculate IC50 values for each inhibitor, initial velocities were graphed as a function of inhibitor concentrations and fit with a three-parameter nonlinear regression (GraphPad Prism 8.0). The equation [Ki = IC50/([S]/KM + 1)] was used to convert IC50’s to Ki values.

SHMT1 = target: T2, SHMT1 (Homo sapiens, UniProt P34896); experiment: SHMT1 inhibition assay coupled with MTHFD2, Ki; type: biochemical; details: purified His-SHMT1, 50 μM THF, 25 °C; mean (SD), at least 3 replicates
T2 construct: full-length SHMT1 with an N-terminal His6-tag; made in house; host or cells: E. coli Rosetta (DE3)pLysS
T2 sequence (P34896 1-483): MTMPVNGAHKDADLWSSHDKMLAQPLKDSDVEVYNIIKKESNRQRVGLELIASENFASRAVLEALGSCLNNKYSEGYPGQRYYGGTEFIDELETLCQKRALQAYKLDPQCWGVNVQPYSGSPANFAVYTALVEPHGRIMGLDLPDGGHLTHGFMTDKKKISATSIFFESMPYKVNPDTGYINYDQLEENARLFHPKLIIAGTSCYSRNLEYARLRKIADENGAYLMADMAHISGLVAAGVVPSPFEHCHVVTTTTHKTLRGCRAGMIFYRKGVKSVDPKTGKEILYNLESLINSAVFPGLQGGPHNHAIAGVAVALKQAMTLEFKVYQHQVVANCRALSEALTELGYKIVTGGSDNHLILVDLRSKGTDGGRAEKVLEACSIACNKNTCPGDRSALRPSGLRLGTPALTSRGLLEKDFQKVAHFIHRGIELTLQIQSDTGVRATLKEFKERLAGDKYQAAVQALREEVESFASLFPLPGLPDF
Description: Kinetic measurements were recorded in triplicate using a flat, black-bottom, black-walled 96-well plate (Greiner Bio-One, 655900) and a BioTek Synergy Neo2 Plate Reader. […] To assay SHMT1 or SHMT2 (SHMT1/2) enzymes, a coupled reaction with His-MTHFD2 in 200-fold molar excess was used where the production of NADH was monitored by fluorescence with excitation at 360 nm and emission at 470 nm at 25 °C. The reactions contained 5 nM His-SHMT1/2, 50 μM THF, 20 mM serine, 10 μM His-MTHFD2, 2.5 mM NAD^+, and a range of inhibitor concentrations (final concentrations). The reactions were performed in buffer containing 20 mM sodium phosphate, pH 7.5, 100 mM KCl, 0.2 mM EDTA, and 5 mM β-Me. A BioTek Synergy Neo2 Plate Reader was used to record kinetic measurements in triplicate in a UV-transparent 96-well plate (Costar 3635) for GARFTase and AICARFTase assays and a black-well, black-bottom 96-well plate (Corning 3603). To calculate IC50 values for each inhibitor, initial velocities were graphed as a function of inhibitor concentrations and fit with a three-parameter nonlinear regression (GraphPad Prism 8.0). The equation [Ki = IC50/([S]/KM + 1)] was used to convert IC50’s to Ki values.

D4 (FRβ) CHO cells = details: classic antifolates, CHO cells expressing human FRβ; previously published; cited from earlier work
PC43-10 (RFC) CHO cells = details: classic antifolates, CHO cells expressing human RFC; previously published; cited from earlier work
KB (RFC/PCFT/FRα) cells = experiment: Growth inhibition, KB nasopharyngeal carcinoma cells; type: cell-based, human; details: Homo sapiens, KB, folate-free RPMI 1640, 2 nM leucovorin, mean (SE)
Description: The CHO cells were cultured in α-minimal essential medium (MEM) supplemented with 10% bovine calf serum (Fisher Scientific), penicillin (1000 U/mL)/streptomycin (1000 μg/mL), and 2 mM L-glutamine at 37 °C with 5% CO2. All of the R2 transfected cells (PC43-10, RT16, R2/PCFT4) were cultured in complete α-MEM media plus 1 mg/mL G418. Prior to the cytotoxicity assays (see below), RT16 and D4 cells were cultured for 3 days in complete folate-free RPMI 1640 (without added folate), and R2/PCFT4 and R2 cells were cultured in complete folate-free RPMI 1640 supplemented with dialyzed fetal bovine serum (Fisher Scientific) and 25 nM leucovorin plus 1 mg/mL G418. KB cells were routinely cultured in folate-free RPMI 1640 medium, supplemented with 10% fetal bovine serum (Fisher Scientific), penicillin-streptomycin solution, and 2 mM L-glutamine at 37 °C with 5% CO2.
For growth inhibition studies, cells (CHO, KB) were plated in 96-well dishes (∼2500–5000 cells/well, total volume of 200 μL medium) over a range of antifolate concentrations.[69],[77] The medium was folate-free RPMI 1640 with 10% dialyzed serum and antibiotics supplemented with 25 nM leucovorin for experiments with R2, PC43-10, and R2/PCFT4 cells. For experiments with RT16, D4, and KB cells, cells were cultured in folate-free RPMI medium with 10% dialyzed fetal bovine serum and antibiotics; the medium was supplemented with 2 nM leucovorin. […] Incubations were routinely for up to 96 h. Viable cells (reflecting cell viability) were assayed with Cell Titer Blue reagent (Promega, Madison, WI), with fluorescence measured (590 nm emission, 560 nm excitation) with a fluorescence plate reader.

human GARFTase = target: T3, human GARFTase (Homo sapiens, UniProt P22102); experiment: GARFTase inhibition assay, Ki (10-formyl THF to THF, absorbance 298 nm); type: biochemical; details: purified His-GARFTase, 40 μM 10-formyl THF, 37 °C; mean (SD), at least 3 replicates
T3 construct: formyltransferase domain of human GARFTase (residues 808–1010); made in house; host or cells: E. coli Rosetta (DE3)pLysS
T3 sequence (P22102 808-1010): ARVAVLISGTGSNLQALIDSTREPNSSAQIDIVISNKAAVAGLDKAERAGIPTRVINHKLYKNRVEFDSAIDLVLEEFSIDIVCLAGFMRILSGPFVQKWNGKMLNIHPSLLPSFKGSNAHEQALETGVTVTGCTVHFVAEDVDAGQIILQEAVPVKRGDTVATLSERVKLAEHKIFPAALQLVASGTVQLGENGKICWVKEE

human ATIC = target: T4, human ATIC (Homo sapiens, UniProt P31939); experiment: AICARFTase (ATIC) inhibition assay, Ki; type: biochemical; details: purified His-ATIC, AICARFTase activity, 50 μM 10-formyl THF, 25 °C; mean (SD), at least 3 replicates
T4 construct: N-terminal His6-tagged full-length human ATIC; made in house; host or cells: E. coli Rosetta (DE3)pLysS
T4 sequence (P31939 whole entry): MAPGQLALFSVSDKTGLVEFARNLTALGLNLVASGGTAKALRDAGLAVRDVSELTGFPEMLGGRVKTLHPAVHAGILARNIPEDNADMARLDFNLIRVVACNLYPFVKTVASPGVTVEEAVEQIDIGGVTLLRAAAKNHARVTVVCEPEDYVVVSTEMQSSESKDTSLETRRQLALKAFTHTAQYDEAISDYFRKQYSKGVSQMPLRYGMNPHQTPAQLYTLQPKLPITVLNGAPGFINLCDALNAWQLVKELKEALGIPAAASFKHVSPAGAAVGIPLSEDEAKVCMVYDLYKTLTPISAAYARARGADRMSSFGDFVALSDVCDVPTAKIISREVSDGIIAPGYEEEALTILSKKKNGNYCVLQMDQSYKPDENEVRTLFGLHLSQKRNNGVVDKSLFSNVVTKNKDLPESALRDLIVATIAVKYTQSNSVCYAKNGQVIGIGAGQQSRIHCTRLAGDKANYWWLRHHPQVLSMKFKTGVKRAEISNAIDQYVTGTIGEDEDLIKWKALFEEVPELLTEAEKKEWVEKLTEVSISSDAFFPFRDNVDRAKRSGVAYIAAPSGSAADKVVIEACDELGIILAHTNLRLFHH
Description: The cells were grown at 37 °C in 1 L cultures of LB media containing […] and […] until OD600 reached 0.6. Protein expression was induced by the addition of isopropyl β-D1-thiogalactopyranoside (IPTG, 500 μM).
His-ATIC was purified by Ni-NTA chromatography (Gold Biotechnology).[36] […] His-ATIC was eluted in 1 column volume fractions, 5 times with buffer containing 300 mM imidazole, 25 mM Tris-HCl, pH 7.5, 300 mM NaCl, and 5 mM β-Me. Size exclusion chromatography on a Superdex 200 16/60 (GE Healthcare) column was used for final purification using 20 mM Tris-HCl, pH 7.5, 150 mM NaCl, 50 mM KCl, 5 mM EDTA, and 5 mM dithiothreitol.
as §1

RT16 (FRα) CHO cells = details: classic antifolates, CHO cells expressing human FRα; previously published; cited from earlier work

Ki (SHMT2) [µM]	Ki (SHMT1) [µM]	IC50 (KB (RFC/PCFT/FRα) cells) [µM]	Ki (human GARFTase) [µM]	Ki (human ATIC) [µM]	SMILES	effect of adenosine alone on growth inhibition (KB tumor cells)	IC50 (D4 (FRβ) CHO cells) [µM]	IC50 (PC43-10 (RFC) CHO cells) [µM]	IC50 (RT16 (FRα) CHO cells) [µM]
					Nc1nc2[nH]c(CCCc3ccc(C(=O)N[C@@H](CCC(=O)O)C(=O)O)s3)cc2c(=O)[nH]1 [AGF94, (S)-2-({5-[3-(2-amino-4-oxo-4,7-dihydro-3H-pyrrolo[2,3-d]pyrimidin-6-yl)-propyl]-thiophene-2-carbonyl}-amino)-pentanedioic acid]	completely reversed			
> 200	> 200	0.00047	> 150	> 200	C#CCC(Cc1cnc2nc(N)nc(N)c2n1)c1ccc(C(=O)N[C@@H](CCC(=O)O)C(=O)O)cc1 (stereo partly drawn) [PDX, N-(4-{1-[(2,4-diaminopteridin-6-yl)methyl]but-3-yn-1-yl}benzoyl)-L-glutamic acid]		0.0025	0.00069	0.043
> 200	> 200				Nc1nc2[nH]cc(CCc3ccc(C(=O)N[C@@H](CCC(=O)O)C(=O)O)cc3)c2c(=O)[nH]1 [PMX, N-{4-[2-(2-amino-3,4-dihydro-4-oxo-7H-pyrrolo[2,3-d]pyrimidin-5-yl)ethyl]benzoyl}-L-glutamic acid]				

SMILES	Ki (SHMT2) [µM]	Ki (SHMT1) [µM]	IC50 (KB (RFC/PCFT/FRα) cells) [µM]	Ki (human GARFTase) [µM]	Ki (human ATIC) [µM]	effect of adenosine alone on growth inhibition (KB tumor cells)	IC50 (D4 (FRβ) CHO cells) [µM]	IC50 (PC43-10 (RFC) CHO cells) [µM]	IC50 (RT16 (FRα) CHO cells) [µM]
CN(Cc1cnc2nc(N)nc(N)c2n1)c1ccc(C(=O)N[C@@H](CCC(=O)O)C(=O)O)cc1 [MTX, methotrexate]	98 ± 17	> 200							
